The source made the active and inactive calls.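 Rule for the calls: active = tumour findings in long-term animal cancer tests in more than one sex, species or organ; inactive = no tumour finding and more than one negative test.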
Assay: DSSTox (CPDBAS) Carcinogenic Potency Database Summary MultiCellCall Results
Settings: animal carcinogenicity bioassays, multi-cell call summary
How it was run: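 Summary call drawn from chronic long-term cancer bioassays in rats, mice, hamsters, dogs and nonhuman primates, using the most positive result per sex-species. Score: multispecies=50, multisex=30, multisite=20, summed for combinations.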
For `C=C(C)[C@H]1CC=C(C)C(=O)C1`, the outcome was “inactive; multisex inactive”.
With `O=P1(NCCCl)OCCCN1CCCl` (centres undefined) the outcome was “active; multisite active; multisex active; multispecies active”.
For `CC/C(=C(\c1ccccc1)c1ccc(OCCN(C)C)cc1)c1ccccc1`, the outcome was “active; multisite active; multisex active; multispecies active”.
For `OC[C@@H](O)[C@@H](O)[C@H](O)[C@H](O)CO`, the outcome was “inactive; multisex inactive; multispecies inactive”.
With `O=C(O)c1ccccc1-c1c2cc(I)c(=O)c(I)c-2oc2c(I)c(O)c(I)cc12` the outcome was “inactive; multisex inactive; multispecies inactive”.
In the case of `CCOCCc1c(-c2ccccc2)nc(N)n2ncnc12`, the outcome is reported as “active; multisite active; multisex active”.
For `CCBr`, the outcome was “active; multisite active; multisex active; multispecies active”.
In the case of `C=CCN(CC=C)N=O`, the outcome is reported as “active; multisex active; multispecies active”.
For `COc1cc2c(c3oc(=O)c4c(c13)CCOC4=O)C1C=COC1O2` (centres undefined), the outcome was “active; multisite active; multispecies active”.
In the case of `O=NN1CCOCC1`, the outcome is reported as “active; multisite active; multisex active; multispecies active”.
In the case of `CC1=NN(c2ccccc2)C(=O)C1`, the outcome is reported as “inactive; multisex inactive; multispecies inactive”.
With `CCCCCCCCCc1ccc(OCCOCCO)cc1` the outcome was “inactive; multispecies inactive”.
For `CN(C)C(=S)S[Se](SC(=S)N(C)C)(SC(=S)N(C)C)SC(=S)N(C)C`, the outcome was “inactive; multisex inactive”.
With `CCN=[N+](C)[O-]` the outcome was “active; multisite active”.
With `CCN(CC)C(=O)Nc1ccc(OCC(O)CNC(C)(C)C)c(C(C)=O)c1` (centres undefined) the outcome was “inactive; multisex inactive; multispecies inactive”.
In the case of `O=C(O)CC[N+](=O)[O-]`, the outcome is reported as “inactive; multisex inactive; multispecies inactive”.
With `CN(N=O)C(=O)c1ccccc1` the outcome was “active; multisite active; multisex active”.
With `CCCCCc1cc(O)c2c(c1)OC(C)(C)[C@@H]1CCC(C)=C[C@@H]21` the outcome was “inactive; multisex inactive; multispecies inactive”.
In the case of `Cc1nc(N)cc2[nH]c3ccccc3c12`, the outcome is reported as “active; multisite active; multisex active; multispecies active”.
In the case of `COC1=CC(=O)C[C@@H](C)[C@]12Oc1c(Cl)c(OC)cc(OC)c1C2=O`, the outcome is reported as “active; multisite active; multisex active”.
With `C[C@@H]1Cc2c(Cl)cc(C(=O)N[C@@H](Cc3ccccc3)C(=O)O)c(O)c2C(=O)O1` the outcome was “active; multisite active; multisex active; multispecies active”.
With `Clc1ccc(Sc2cc(Cl)c(Cl)cc2Cl)cc1` the outcome was “inactive; multisex inactive”.
In the case of `CCOC(=O)[C@]1(c2ccccc2)CCC=C[C@H]1N(C)C`, the outcome is reported as “inactive; multisex inactive; multispecies inactive”.
With `OCCO` the outcome was “inactive; multisex inactive”.
For `ClC/C=C/CCl`, the outcome was “active; multisex active”.
With `CNC(=O)CSP(=S)(OC)OC` the outcome was “inactive; multisex inactive; multispecies inactive”.
For `CCCCCN(N=O)C(=O)OCC`, the outcome was “active; multisite active”.
In the case of `N#CN=C(N)N`, the outcome is reported as “inactive; multisex inactive”.
In the case of `Clc1ccc(-c2cccc(Cl)c2Cl)c(Cl)c1`, the outcome is reported as “active; multisite active; multisex active”.
In the case of `O=S(=O)(O)c1c(N=Nc2c(O)ccc3ccccc23)ccc2ccccc12`, the outcome is reported as “inactive; multisex inactive”.
With `S=c1[nH]c2ccccc2s1` the outcome was “active; multisite active; multisex active”.
With `C/C=C/c1ccc2c(c1)OCO2` the outcome was “inactive; multisex inactive”.
With `CN(C)c1ccc(C(=C2C=CC(=[N+](C)C)C=C2)c2ccc(N(C)C)cc2)cc1` the outcome was “active; multisite active; multisex active”.
For `Clc1nc(Cl)nc(Nc2ccccc2Cl)n1`, the outcome was “inactive; multisex inactive; multispecies inactive”.
With `COC(=O)C(C)(C)Oc1ccc(-c2ccc(Cl)cc2)cc1` the outcome was “active; multisite active; multisex active; multispecies active”.
In the case of `C=C1C(C)(C)[C@@]2(Cl)C(Cl)[C@]1(Cl)C(Cl)(Cl)C2(Cl)Cl` (some centres undefined), the outcome is reported as “active; multisite active”.
For `Oc1ccccc1`, the outcome was “inactive; multisex inactive; multispecies inactive”.
With `CC(=O)CN(N=O)C(=O)NCCCl` the outcome was “active; multisex active”.
For `CN(C)N=O`, the outcome was “active; multisite active; multisex active; multispecies active”.
In the case of `ClC1=C(Cl)[C@]2(Cl)[C@@H]3[C@H]4C[C@H]([C@@H]5O[C@H]45)[C@@H]3[C@@]1(Cl)C2(Cl)Cl`, the outcome is reported as “inactive; multisex inactive; multispecies inactive”.
For `Clc1cc2c(cc1Cl)Oc1cc(Cl)c(Cl)cc1O2`, the outcome was “active; multisite active; multisex active; multispecies active”.
For `c1ccoc1`, the outcome was “active; multisite active; multisex active; multispecies active”.
With `Nc1nnc(-c2ccc([N+](=O)[O-])o2)o1` the outcome was “active; multisite active”.
In the case of `ClCC(Br)CBr` (centres undefined), the outcome is reported as “active; multisite active; multisex active; multispecies active”.
In the case of `C=CCl`, the outcome is reported as “active; multisite active; multisex active; multispecies active”.
For `COc1ccc2c3c1O[C@H]1[C@@H](O)C=C[C@H]4[C@@H](C2)N(C)CC[C@@]341`, the outcome was “inactive; multisex inactive; multispecies inactive”.
For `Nc1nc(-c2ccc([N+](=O)[O-])o2)cs1`, the outcome was “active; multisite active; multispecies active”.
In the case of `Cc1ccc(S(=O)(=O)OCCN(C)N=O)cc1`, the outcome is reported as “active; multisite active; multisex active”.
In the case of `CC(Oc1c(Cl)cccc1Cl)C1=NCCN1` (centres undefined), the outcome is reported as “inactive; multisex inactive”.
For `O=CNc1nc(-c2ccc([N+](=O)[O-])o2)cs1`, the outcome was “active; multisite active; multisex active; multispecies active”.
For `Cc1ccccc1[N+](=O)[O-]`, the outcome was “active; multisite active; multisex active; multispecies active”.
In the case of `C1COCCO1`, the outcome is reported as “active; multisite active; multisex active; multispecies active”.
For `N#Cc1c(Cl)c(Cl)c(Cl)c(C#N)c1Cl`, the outcome was “active; multisex active”.
For `NNc1ccc(C(=O)O)cc1`, the outcome was “active; multisex active”.
With `O=C(O)CN(CCN(CC(=O)O)CC(=O)O)CC(=O)O` the outcome was “inactive; multisex inactive; multispecies inactive”.
With `CC1(C)COC1=O` the outcome was “active; multisex active”.
With `O=[N+]([O-])c1cc([N+](=O)[O-])c(Cl)c(Cl)c1Cl` the outcome was “inactive; multisex inactive”.
With `O=[N+]([O-])c1cccc2ccccc12` the outcome was “inactive; multisex inactive; multispecies inactive”.
In the case of `O=C1c2ccccc2CN2C(=O)c3ccccc3CN12`, the outcome is reported as “active; multisite active; multisex active”.
With `CC(O)C(=O)O` (centres undefined) the outcome was “inactive; multisex inactive”.
With `ClC1=C(Cl)C2(Cl)C3C(Cl)OC(Cl)C3C1(Cl)C2(Cl)Cl` (centres undefined) the outcome was “inactive; multisex inactive”.
For `C[C@H](CCC(=O)O)[C@H]1CC[C@H]2[C@@H]3CC[C@@H]4C[C@H](O)CC[C@]4(C)[C@H]3CC[C@]12C`, the outcome was “inactive; multisex inactive; multispecies inactive”.
In the case of `CC(=O)NCc1nc(-c2ccc([N+](=O)[O-])o2)no1`, the outcome is reported as “active; multisite active”.
For `Cc1ccc(O)c(O)c1`, the outcome was “active; multisex active”.
In the case of `COc1ccc(O)cc1`, the outcome is reported as “active; multisex active”.
In the case of `ClC(Cl)(Cl)C(Cl)(Cl)Cl`, the outcome is reported as “active; multisite active; multisex active; multispecies active”.
With `CCCCCCCCCCCCCCCC(=O)OC/C=C(C)/C=C/C=C(C)/C=C/C1=C(C)CCCC1(C)C` the outcome was “inactive; multispecies inactive”.
For `O=NN1CCNCC1`, the outcome was “active; multisite active; multisex active”.
In the case of `CCN=c1cc2oc3cc(NCC)c(C)cc3c(-c3ccccc3C(=O)OCC)c-2cc1C`, the outcome is reported as “inactive; multisex inactive; multispecies inactive”.
